Experimental data: patent US12691109B2, “Bifunctional aggregation-induced emission luminogen for monitoring and killing of multidrug-resistant bacteria” (The Hong Kong University of Science and Technology, priority 2018, dated 2026)

Tests used:
Test in all cases: Antibacterial activity, MIC
Assay type in all cases: cell-based
[1] = test system: MDR S. epidermidis; details: clinical MDR isolate
[2] = test system: S. aureus; details: laboratory-sensitive strain
[3] = test system: MDR E. coli; details: clinical MDR isolate
[4] = test system: MDR K. pneumoniae; details: clinical MDR isolate
[5] = test system: S. epidermidis; details: laboratory-sensitive strain
[6] = test system: E. coli; details: laboratory-sensitive strain
[7] = test system: K. pneumoniae; details: laboratory-sensitive strain
[8] = test system: MDR S. aureus; details: clinical MDR isolate

Penicilin
MIC, MDR S. epidermidis [1]: >32 µg/mL
MIC, S. aureus [2]: <2 µg/mL
MIC, MDR E.coli [3]: >128 µg/mL
MIC, MDR K. pneumoniae [4]: >128 µg/mL
MIC, S. epidermidis [5]: <2 µg/mL
MIC, E.coli [6]: <2 µg/mL
MIC, K. pneumoniae [7]: 32 µg/mL
MIC, MDR S. aureus [8]: 64 µg/mL

Gentamicin
MIC, MDR S. epidermidis [1]: <2 µg/mL
MIC, S. aureus [2]: <2 µg/mL
MIC, MDR E.coli [3]: >128 µg/mL
MIC, MDR K. pneumoniae [4]: >128 µg/mL
MIC, S. epidermidis [5]: <2 µg/mL
MIC, E.coli [6]: <2 µg/mL
MIC, K. pneumoniae [7]: <2 µg/mL
MIC, MDR S. aureus [8]: >128 µg/mL

Polymyxin
MIC, MDR S. epidermidis [1]: >128 µg/mL
MIC, S. aureus [2]: >128 µg/mL
MIC, MDR E.coli [3]: 32 µg/mL
MIC, MDR E.coli ([3]; listed as polymyxin): > 32 µg/mL
MIC, MDR K. pneumoniae [4]: 64 µg/mL
MIC, MDR K. pneumoniae ([4]; listed as polymyxin): > 64 µg/mL
MIC, S. epidermidis [5]: 64 µg/mL
MIC, E.coli [6]: 16 µg/mL
MIC, K. pneumoniae [7]: <2 µg/mL
MIC, MDR S. aureus [8]: >128 µg/mL
